In patent US10479792B2, “Compounds” (GlaxoSmithKline Intellectual Property Development Limited, priority 2015, dated 2019):

What was measured:
[1] = system: RnH9c2 cells; assay: Trypanosoma cruzi intracellular assay (Assay 2), host cell cytotoxicity; assay type: cell-based; conditions: rat, H9C2 cardiomyocytes infected with Trypanosoma cruzi, 72 h incubation, read-out: cytotoxicity against RnH9c2 cells, pEC50 (converted)
Procedure: (§1) Compounds were dispensed into black 384-well assay plates (Greiner) by acoustic dispensing (LabCyte ECHO). For potency determinations, eleven-point, one in three dilution curves were generated, with a top concentration of 50 μM. H9C2 rat cardiomyocytes cells were dispensed in T225 tissue culture flasks and after 4 hours they were infected during 18 hours with T. cruzi trypomastigotes in the same T225 tissue culture flasks at a multiplicity of infection of 1. Next, any remaining free trypomastigotes were washed away with PBS and the infected H9C2 cells were harvested by trypsinisation. The infected H9C2 cells were then plated into 384-well plates containing the compounds to be tested, at 2500 cells per well in DMEM media with 2% FBS, 1% Penicillin/Streptomicin, 2 mM L-Glutamine, 1 mM Na Pyruvate and 25 mM HEPES. After 72 h incubation at 37° C. in presence of 5% CO2, the plates were fixed and stained with 4% formaldehyde and 2 μM Draq5 for 3 hours at room temperature. The plates were imaged on a Perkin Elmer Opera high-content imaging system using a 20× air objective. Images were analyzed using the Acapella building blocks system (Perkin Elmer). The image analysis algorithm first identified the H9C2 nuclei followed by demarcation of the cytoplasm and identification of intracellular amastigotes. This algorithm reported mean number of parasites per H9C2 cell, the percentage of infected H9C2 cells and the total number of H9C2 cells.

[2] = system: Leishmania donovani; assay: Leishmania donovani intracellular assay (Assay 5); assay type: cell-based; conditions: THP-1, 96 h, eGFP amastigotes in THP-1 cells, 96 h incubation, read-out: pEC50 value against Leishmania donovani (converted)
Procedure: (§2) Assay 5. Leishmania donovani Intracellular Assay
(§3) Compounds were dispensed into black 384-well assay plates (Greiner) by acoustic dispensing (LabCyte ECHO). For potency determinations, eleven-point, one in three dilution curves were generated, with a top concentration of 50 μM. THP-1 human monocytes cells were dispensed in T225 tissue culture flasks and differentiated using 30 nM of PMA, after 24 hours they were infected overnight using Leishmania donovani expressing Green Fluorescent Protein (eGFP) amastigotes in the same T225 tissue culture flasks at a multiplicity of infection of 10. Next, any remaining free amastigotes were washed away with PBS and the infected THP-1 cells were harvested by trypsinisation. The infected cells were then plated into 384-well plates containing the compounds to be tested, at 3000 cells per well in RPMI media with 2% FBS and 25 mM Sodium bicarbonate. After 96 h incubation at 37° C. in presence of 5% CO2, the plates were fixed with 4% formaldehyde for 30 minutes, washed with PBS and stained with 0.1 mg/mL of DAPI for 30 minutes and washed again with PBS. The plates were imaged on a Perkin Elmer Opera high-content imaging system using a 20× air objective with two expositions, one for DAPI stain and other for eGFP. Images were analysed using the Acapella building blocks system (Perkin Elmer). The image analysis algorithm first identified the THP-1 nuclei followed by demarcation of the cytoplasm and identification of intracellular amastigotes. This algorithm reported mean number of parasites per THP-1 cell, the percentage of infected THP-1 cells and the total number of THP-1 cells.

[3] = system: Leishmania donovani; assay: Intramacrophage Leishmania donovani assay (Assay 1), average number of amastigotes per cell (potency readout); assay type: cell-based; conditions: THP-1, 96 h, amastigotes in PMA-differentiated THP-1 macrophages, 96 h incubation, read-out: pEC50 value against Leishmania donovani (converted)
Procedure: Assay 1. Intramacrophage Leishmania donovani Assay
The intramacrophage Leishmania assay was performed using a modified version of the method described in De Rycker et al. (Antimicrob Agents Chemother. 2013 July; 57(7):2913-22. Comparison of a high-throughput high-content intracellular Leishmania donovani assay with an axenic amastigote assay. De Rycker M, Hallyburton I, Thomas J, Campbell L, Wyllie S, Joshi D, Cameron S, Gilbert I H, Wyatt P G, Frearson J A, Fairlamb A H, Gray D W.). Procedure: 350 nl of compound was pre-dispensed into 384 well sterile intermediary plates. For single point screening, amphotericin B was added to all wells of column 24 as a positive control (final concentration 2 μM) and DMSO to column 23. For potency determinations, ten-point, one in three dilution curves were created with the highest concentration being 50 μM and on each plate a control curve of amphotericin B was included. Controls were as follows: columns 11 and 12: DMSO, columns 23 and 24: amphotericin B (final concentration 2 μM). To the intermediary plates, 35 μl of THP-1 media was added and plates were shaken for >5 min to ensure complete mixing. THP-1 cells (8,000 per well, 50 μl) were plated into black clear-bottom 384 well plates (Corning) in presence of 20 nM PMA. After 20 min at RT, the plates were incubated at 37° C. under 5% CO2 in a humidified incubator for 75 h. The cells were then washed with […] sterile phosphate buffered saline (PBS) supplemented with 1 mM CaCl2, 0.5 mM MgCl2, 0.1% (w/v) bovine serum albumin (PBS-A) and amastigotes were added to all wells at a multiplicity of infection of 5 (40,000 amastigotes per well). After 40 min at RT, plates were returned to the incubator. Amastigotes were incubated in the presence of THP-1 macrophages for 16 h. Any remaining extracellular amastigotes were subsequently removed with an overflow wash of 1 mL PBS-A per well (wash buffer is being aspirated from the top of the well as it is being dispensed) followed by addition of 25 μl of the compound pre-dilutions using a Fluidx Ipette-pro pipetting station. The final dilution of each compound was 200-fold. Plates were incubated for 96 h and then washed (250 μl PBS-A) and fixed (4% (v/v) formaldehyde-PBS, 30 min, RT). After fixation, the wells were washed with 250 μl PBS, stained (10 μg/mL DAPI, 0.4 μg mL-1 HCS Cellmask Deep Red in PBS+0.1% (v/v) Triton X-100, 30 min, RT) and washed with 250 μl PBS. Finally, PBS+0.05% (v/v) thimerosal was added to the wells, the plates were sealed and imaged on a high-content microscope (GE IN Cell 2000) using a 10× objective. Image analysis was carried out with GE IN Cell Analyzer 1000 Workstation using the “Multi Target Analysis” module. Settings for segmentation were as follows: nuclei: minimum area: 142.384 μm2, sensitivity: 81, method: top-hat; cells: characteristic area: 2500 μm2, sensitivity: 60, method: multiscale top-hat; organelles (amastigotes): granule size 1-3, 3 scales, sensitivity: 90, detection in entire cell. For each well, i) THP-1 cell count (cytotoxicity readout) and ii) average number of amastigotes per cell (potency readout) were calculated, both in terms of pEC50 values.

[4] = system: Trypanosoma cruzi; assay: Trypanosoma cruzi intracellular assay (Assay 2); assay type: cell-based; conditions: infected H9C2 rat cardiomyocytes, 72 h incubation, read-out: pEC50 value against Trypanosoma cruzi (converted)
Procedure: as §1

[5] = system: THP-1 cells; assay: Leishmania donovani intracellular assay (Assay 5), THP-1 cytotoxicity; assay type: cell-based; conditions: human, 96 h incubation, read-out: cytotoxicity against THP-1 cells, pEC50 (converted)
Procedure: as §2, §3

[6] = Solubility assay, ChemiLuminescent Nitrogen Detection (CLND) (Assay 4); assay type: physicochemical; conditions: phosphate buffered saline (PBS) pH 7.4, aqueous buffer, kinetic from dmso stock, PBS pH 7.4, from 10 mM DMSO stock, 1 h at room temperature
Procedure: Assay 4. Solubility Assay—ChemiLuminescent Nitrogen Detection (CLND) I. Compounds A 10 mM DMSO stock solution of the compound was prepared. Solvents and Buffers Organic solvents of HPLC grade were used. Ultra pure water (Milli-Q grade) was used. Buffers were prepared with ultra pure water and filtered using 0.45μ cameo filters. Aqueous Buffer Solution: Phosphate Buffer Saline (PBS) @ pH 7.4 was prepared from Sigma dry powder packs, P-3813. Each one was diluted to 1 liter with deionised water. The pH was checked before the solution was used II. Procedures. • a) DMSO concentration was measured. DMSO blanks and ondansetron and caffeine standards were added to the plate (column 12, A, B, C, & D for the blanks and E, F, G, & H for the standards). Plates were covered with foil. When the UV and CLND detectors baselines appeared to be stable, the CLND was zeroed. • b) Once DMSO concentration measurements were complete, a filtration plate was prepared from each parent plate by diluting 5 μl of the 10 mM DMSO stock solution to […] with pH7.4 PBS. • c) After the plates were prepared, they were covered with a plate lid and left to incubate for 1 h at room temperature. • d) Sample was filtered using MILLIPORE MultiScreen Solubility (MSSLBPC10) Filtration Plates, to NUNC V well plates. […]

Structure (SMILES): CC(C)Cc1cnc2nc(-c3cc(NC(=O)N4CCCC4)ccc3F)ccn12 [Example 17, N-(4-fluoro-3-(3-isobutylimidazo[1,2-a]pyrimidin-7-yl)phenyl)pyrrolidine-1-carboxamide]
- EC50 at 72 h [1]: 5.01 µM
- EC50 [2]: 0.126 to 10 µM
- EC50 [3]: 0.251 to 10 µM

Structure (SMILES): O=C(Nc1ccc(F)c(-c2ccn3c(N4CCOCC4)cnc3n2)c1)N1CC[C@H](F)C1 [Example 23a]
- EC50 [2]: > 50.1 µM
- EC50 [4]: 31.6 µM
- EC50 [3]: > 50.1 µM

Structure (SMILES): O=C(Nc1ccc(F)c(-c2ccn3c(-c4ccccn4)cnc3n2)c1)N1CCCC1 [Example 26, N-(4-fluoro-3-(3-(pyridin-2-yl)imidazo[1,2-a]pyrimidin-7-yl)phenyl)pyrrolidine-1-carboxamide]
- EC50 at 72 h [1]: 39.8 µM
- EC50 [2]: 0.126 to 10 µM
- EC50 at 96 h [5]: 12.6 to 50.1 µM
- EC50 [3]: 0.251 to 10 µM

Structure (SMILES): O=C(Nc1ccc(F)c(-c2cnn3c(-c4ccccc4)cnc3n2)c1)N1CCCC1 [Example 7, N-(4-fluoro-3-(7-phenylimidazo[1,2-b][1,2,4]triazin-3-yl)phenyl)pyrrolidine-1-carboxamide]
- EC50 at 72 h [1]: 20 µM
- EC50 [3]: 0.251 to 10 µM

Structure (SMILES): COc1cccc(-c2cnc3nc(-c4cc(NC(=O)N5CCCC5)ccc4F)ccn23)n1.Cl [Example 28, N-(4-fluoro-3-(3-(6-methoxypyridin-2-yl)imidazo[1,2-a]pyrimidin-7-yl)phenyl)pyrrolidine-1-carboxamide]
- EC50 at 72 h [1]: 7.94 µM
- solubility at 1 h [6]: < 1 µM
- EC50 [2]: 0.126 to 10 µM
- EC50 at 96 h [5]: 12.6 to 50.1 µM

Structure (SMILES): C[C@H]1CCCN1C(=O)Nc1ccc(F)c(-c2ccn3c(N4CCOCC4)cnc3n2)c1 [Example 33a]
- EC50 [2]: 12.6 to 39.8 µM
- EC50 [4]: 12.6 µM
- EC50 [3]: > 50.1 µM

Structure (SMILES): O=C(Nc1ccc(F)c(-c2ccn3c(N4CCCCC4)cnc3n2)c1)N1CCCC1 [Example 5, N-(4-fluoro-3-(3-(piperidin-1-yl)imidazo[1,2-a]pyrimidin-7-yl)phenyl)pyrrolidine-1-carboxamide]
- EC50 [2]: 0.126 to 10 µM
- EC50 at 96 h [5]: 12.6 to 50.1 µM
- EC50 [3]: 0.251 to 10 µM

Structure (SMILES): O=C(Nc1ccc(F)c(-c2ccn3ccnc3n2)c1)N1CCCC1 [Example 16, N-(4-fluoro-3-(imidazo[1,2-a]pyrimidin-7-yl)phenyl)pyrrolidine-1-carboxamide]
- EC50 [2]: 12.6 to 39.8 µM
- EC50 at 96 h [5]: 12.6 to 50.1 µM
- EC50 [3]: 12.6 to 20 µM

Structure (SMILES): O=C(Nc1ccc(F)c(-c2ccn3c(-c4ccccc4)cnc3n2)c1)N1CCCC1 [Example 3, N-(4-fluoro-3-(3-phenylimidazo[1,2-a]pyrimidin-7-yl)phenyl)pyrrolidine-1-carboxamide]
- EC50 [2]: 0.126 to 10 µM
- EC50 at 96 h [5]: 12.6 to 50.1 µM
- EC50 [3]: 0.251 to 10 µM

Structure (SMILES): Cc1cccc(-c2cnc3nc(-c4cc(NC(=O)N5CCCC5)ccc4F)ccn23)n1 [Example 37, N-(4-fluoro-3-(3-(6-methylpyridin-2-yl)imidazo[1,2-a]pyrimidin-7-yl)phenyl)pyrrolidine-1-carboxamide]
- EC50 at 72 h [1]: 25.1 µM
- EC50 [2]: 0.126 to 10 µM
- EC50 at 96 h [5]: 12.6 to 50.1 µM

Structure (SMILES): O=C(Nc1ccc(F)c(-c2ccn3c(C4CCOCC4)cnc3n2)c1)N1CCCC1 [Example 19, N-(4-fluoro-3-(3-(tetrahydro-2H-pyran-4-yl)imidazo[1,2-a]pyrimidin-7-yl)phenyl)pyrrolidine-1-carboxamide]
- EC50 at 72 h [1]: 39.8 µM
- EC50 [2]: 0.126 to 10 µM
- EC50 [3]: 0.251 to 10 µM
